Measured values published in article PMC2654097, “Orally Available Selective Melanocortin-4 Receptor Antagonists Stimulate Food Intake and Reduce Cancer-Induced Cachexia in Mice” (PLoS ONE, 2009).
Where two headings read alike, the source gives them in different places. Ends that are not written are not given here.

Experiments:
[1] = test system: animals implanted with a colorectal tumor; design: method as in PMID 15027849; conditions: subcutaneous administration; cited from earlier work
[2] = test system: animals implanted with Lewis lung carcinoma; conditions: subcutaneous administration; cited from earlier work
healthy mice = assay: Light phase food intake; type: in vivo, NMRI mice; conditions: for effect on food intake, single dose comparison / effect on food intake: 4 hrs; for effect on food intake, single dose comparison: p<0.01 vs vehicle; for amount of food taken relative to vehicle control group: p.o., four hour post-treatment observation period; for effect on food intake: single oral treatment by gavage, dose range; for effect on food intake / amount of food taken relative to vehicle treated controls: light phase; for amount of food taken relative to vehicle treated controls: single s.c. injection 20 mg/kg, 4 hrs observation, p<0.01
Description: Six weeks old female NMRI mice (RCC Ltd.; Füllinsdorf, CH) were randomly assigned to the various experimental groups and the vehicle controls. They were housed in groups of 3 mice per cage. After at least one week of acclimatization in the experimental room, each animal's weight was determined and compound or vehicle was administered at appropriate concentrations 5 hrs after lights on. Then, food consumption of each cage group was recorded by weighing of the food hopper over a period of 4 hrs. Food intake was then determined as the difference in food hopper weight at the beginning and end of the 4 hrs following administration of the compound or the vehicle. Since the amount of food taken over 4 hrs by single animals was close to the limit of detection, we decided to rely on mean food amounts taken per cage (i.e., per 3 mice), whereby each treatment group consisted of n = 6 cages. The measured values from each cage were normalized to 100 g body weight (BW). Previous experiments indicated an excellent correlation between food intake and reduction of food weight.

C26 tumor bearing mice = assay: C26 adenocarcinoma-induced cachexia model; type: in vivo, BALB/c mice; conditions: for tumor induced weight loss: 30 mg/kg p.o. once daily starting the day after tumor implantation; for body composition (lean body mass and fat mass) / tumor weight / mice that did not show cachexia (loss of more than 5% of body weight): 30 mg/kg p.o. once daily; for body composition (lean body mass and fat mass): day 0 vs day 15, MRI relaxometry; for tumor weight: end of experiment, mean±SEM, not different from Vehicle+Tumor controls; for mice that did not show cachexia (loss of more than 5% of body weight): n = 9, Vehicle+Tumor controls 2 of 9 and 3 of 9
Description: Six week old male BALB/c mice (Harlan, The Netherlands) were used. The animals were single housed, and after a one week adaption period randomly assigned to the experimental or control groups. For the tumor implantation the mice were anaesthetized with 200 µl of ketamine/xylazine. Approximately 1×10^6 C26 cells suspended in phosphate buffered saline were then implanted unilaterally in the flank of the mice by subcutaneous injection. The non-tumor controls underwent the same procedure but received PBS injection only (n = 9 per group). Starting on the first day after tumor implantation, compounds or vehicle were administered orally in 5 ml/kg 1–2 hrs before the onset of the dark phase. Food intake and body weight were recorded daily. Lean and fat mass of each animal were determined by MRI relaxometry (EchoMRI-500, Echo Medical Systems, Houston, TX, USA) prior to tumor inoculation (day 0) and at the end of the experiment after removal of the tumor (typically day 15).

[3] = Brain and plasma concentrations in vivo; conditions: 60 mg/kg p.o., CD-1 mice; for Brain AUC / Plasma AUC: 0-6 hr; for Brain/plasma ratio: calculated from AUC
Description: Twelve weeks old male CD-1 (Hilltop Lab Animals, PA, USA) mice were dosed by gavage with either SNT207707 or SNT207858 at 60 mg/kg (n = 9 per compound). At 1, 3, and 6 hrs post-dose, 3 mice from each compound group were euthanized with CO2. Blood was collected by cardiac puncture, plasma was isolated immediately and then kept on dry ice until analysis. Brains were removed, rinsed with saline solution and stored at −80°C until analysis. Levels of the compound were determined by HPLC followed by mass spectrometry (MS/MS). Areas under the curve (AUC) of plasma and brain levels were computed from measured levels at 1, 3 and 6 hrs post-dose. Brain/plasma ratios were then calculated based on the AUCs. To assess the integrity of the blood-brain-barrier all animals were co-dosed with 10 mg/kg Atenolol.

MC-4 receptor [4] = target: MC-4 receptor; design: method as in earlier work; conditions: binding; read-out: IC50 (binding) / affinity on the MC-4 receptor; cited from earlier work
MC-4 receptor [5] = target: MC-4 receptor; design: method as in earlier work; conditions: function; cited from earlier work
MC-3 = test system: MC-3; design: method as in earlier work; conditions: MC-4 vs. MC-3; cited from earlier work
MC-5 = test system: MC-5; design: method as in earlier work; conditions: MC-4 vs. MC-5; cited from earlier work
[6] = test system: models of cancer-induced anorexia; design: method as in PMID 17584133, PMID 15800806; conditions: central administration; cited from earlier work

Compound | effect on food intake, single dose comparison (healthy mice; p.o. 120 mg/kg) | amount of food taken relative to vehicle control group (healthy mice) | effect on food intake (healthy mice) | amount of food taken relative to vehicle treated controls (healthy mice) | tumor induced weight loss (C26 tumor bearing mice) | body composition (lean body mass and fat mass) (C26 tumor bearing mice) | tumor weight (C26 tumor bearing mice) | mice that did not show cachexia (loss of more than 5% of body weight) (C26 tumor bearing mice) | Brain AUC [3] | Plasma AUC [3] | Brain/plasma ratio [3] | Plasma peak ([3]; levels at 1, 3, 6 hrs) | IC50 (MC-4 receptor [4]) | IC50 (MC-4 receptor [5]) | selectivity vs. MC-3 (MC-3) | selectivity vs. MC-5 (MC-5) | food intake [6] | also measured
COc1ccc(Br)cc1CCc1c(F)cccc1C1=NCCN1 [ML00253764, 2-[2-[2-(5-bromo-2-methoxyphenyl)-ethyl]-3-fluorophenyl]-4,5-dihydro-1H-imidazole] | – | – | – | – | – | – | – | – | – | – | – | – | – | – | – | – | – | cachexia [1]: efficacious in reducing cachexia; cachexia [2]: efficacious in reducing cachexia
CC(C)CCN(CCC(C)C)C(=O)c1ccc2nc(-c3ccc(C#N)cc3)c(CCCN3CCCC3)n2c1.Cl [SNT207707] | statistically significant increases in food intake | roughly up to four times | dose-dependently increased the food intake | roughly 3 fold | significantly reduced the tumor induced weight loss | loss of lean body mass and loss of fat mass was reduced | 1.03 ± 0.07 g | 8 out of 9 | 2.307 µM·h | 6.373 µM·h | 0.36 | 1960 nM | 8 nM | 5 nM | more than 200 fold | more than 200 fold | – | Brain peak ([3]; levels at 1, 3, 6 hrs): ~580 nM
CC[C@H](COc1cccnc1C1CCN(C(=O)[C@@H](Cc2ccc(Cl)cc2Cl)NC(=O)N2CCCC2)CC1)N1CCCC1 [SNT207858] | statistically significant increases in food intake | roughly up to four times | dose-dependently increased the food intake | roughly 3 fold | significantly reduced the tumor induced weight loss | loss of lean body mass and loss of fat mass was reduced | 1.11 ± 0.09 g | 6 out of 9 | 0.437 µM·h | 4.405 µM·h | 0.10 | 1520 nM | 22 nM | 11 nM | 170 fold | 40 fold | – | effect on food intake, single dose comparison (healthy mice; p.o. 60 mg/kg): statistically significant increases in food intake
AgRP: agouti-related protein, the endogenous inverse agonist at the MC-4 receptor (SSRRCVRLHESCLGQQVPCCDPCATCYCRFFNAFCYCRKLGTAMNPCSRT; ends and bridges not checked; cysteine pairing not given here; UniProt O00253 83-132, looked up) | – | – | – | – | – | – | – | – | – | – | – | – | – | – | – | – | increased food intake | –
SHU-9119 [reference compound] | – | – | – | – | – | – | – | – | – | – | – | – | – | – | – | – | increased food intake | –
